From US10494366B2, “Pesticidally active amide heterocyclic derivatives with sulphur containing substituents” (Syngenta Participations AG, priority 2014, dated 2019)

Columns and labels:
Format in all cases: in vivo
[1] = system: Plutella xylostella (diamond back moth); assay: Example B3: Plutella xylostella, treated artificial diet; details: 120 h, application rate 200 ppm, L2 larvae, 5 days after infestation, read-out: effect in at least one of the two categories (mortality or growth inhibition)
Method: (§1) 24-well microtiter plates with artificial diet were treated with aqueous test solutions prepared from 10,000 ppm DMSO stock solutions by pipetting. After drying, the plates were infested with L2 larvae (10 to 15 per well). The samples were assessed for mortality and growth inhibition in comparison to untreated samples 5 days after infestation.

[2] = system: Euschistus heros (neotropical brown stink bug); assay: Example B6: Euschistus heros, sprayed soybean leaf; details: 120 h, application rate 200 ppm, N-2 nymphs, 5 days after infestation
Excerpt: Soybean leaf on agar in 24-well microtiter plates were sprayed with aqueous test solutions prepared from 10,000 ppm DMSO stock solutions. After drying the leaf were infested with N-2 nymphs.

[3] = system: Diabrotica balteata (corn root worm); assay: Example B4: Diabrotica balteata, sprayed maize sprouts; details: 96 h, application rate 200 ppm, L2 larvae, 4 days after infestation, read-out: effect in at least one of the two categories (mortality or growth inhibition)
Method: as §1, with “Maize sprouts, placed on an agar layer in 24-well” for “24-well”, “plates” for “plates with artificial diet”, “spraying.” for “pipetting.”, “(6” for “(10”, “10” for “15”, “4” for “5”

[4] = system: Spodoptera littoralis (Egyptian cotton leaf worm); assay: Example B2: Spodoptera littoralis, systemic test via lettuce roots in agar; details: 144 h, application rate 12.5 ppm, Spodoptera eggs, 6 days after infestation, read-out: control in at least one of the three categories (mortality, anti-feedancy or growth inhibition)
Excerpt: Test compounds were applied by pipette from 10,000 ppm DMSO stock solutions into 24-well plates and mixed with agar. Lettuce seeds were placed on the agar and the multi well plate was closed by another plate which contains also agar. After 7 days the roots have absorbed the compound and the lettuce has grown into the lid plate. The lettuce leafs were now cut off into the lid plate. Spodoptera eggs were pipetted through a plastic stencil on a humid gel blotting paper and the plate closed with it. The samples were assessed for mortality, anti-feedant effect and growth inhibition in comparison to untreated samples 6 days after infestation.
The following compounds gave an effect of at least 80% control in at least one of the three categories (mortality, anti-feedancy or growth inhibition) at an application rate of 12.5 ppm: P2, P3, P8, P9, P11 and P17, P19, P20, P22, P23, P25, P26, P28, P30, P31, P32, P33, P40, P42, P43, P44, P45, P46, P47, P48, P49, P50, P51, P52, P53, P54, P60 and P61.

[5] = system: Spodoptera littoralis (Egyptian cotton leaf worm); assay: Example B1: Spodoptera littoralis, sprayed cotton leaf discs; details: foliar, 72 h, application rate 200 ppm, L1 larvae, 3 days after infestation, read-out: control in at least one of the three categories (mortality, anti-feedancy or growth inhibition)
Method: Cotton leaf discs were placed on agar in 24-well microtiter plates and sprayed with aqueous test solutions prepared from 10,000 ppm DMSO stock solutions. After drying the leaf discs were infested with five L1 larvae. The samples were assessed for mortality, anti-feedant effect, and growth inhibition in comparison to untreated samples 3 days after infestation. Control of Spodoptera littoralis by a test sample is when at least one of mortality, anti-feedant effect, and growth inhibition is higher than the untreated sample.

[6] = system: Myzus persicae (green peach aphid); assay: Example B5: Myzus persicae, sprayed sunflower leaf discs; details: foliar, 144 h, application rate 200 ppm, aphid population of mixed ages, 6 days after infestation
Method: Sunflower leaf discs were placed on agar in a 24-well microtiter plate and sprayed with aqueous test solutions prepared from 10,000 ppm DMSO stock solutions. After drying, the leaf discs were infested with an aphid population of mixed ages. The samples were assessed for mortality 6 days after infestation.

CCS(=O)(=O)c1cc(-c2cccc(F)c2)cnc1C(=O)/N=c1\sc(C(F)(F)F)nn1C [Compound P26]
≥ 80%: percent effect (mortality or growth inhibition) at 200 ppm [1] | mortality at 200 ppm [2] | percent effect (mortality or growth inhibition) at 200 ppm [3] | percent control (mortality, anti-feedant effect or growth inhibition) at 12.5 ppm [4] | percent control (mortality, anti-feedant effect or growth inhibition) at 200 ppm [5]

CCS(=O)(=O)c1cc(-c2ccc(Cl)cc2Cl)cnc1C(=O)/N=c1\sc(C(F)(F)F)nn1C [Compound P34]
≥ 80%: percent effect (mortality or growth inhibition) at 200 ppm [1] | mortality at 200 ppm [2] | percent effect (mortality or growth inhibition) at 200 ppm [3] | percent control (mortality, anti-feedant effect or growth inhibition) at 200 ppm [5]

CCS(=O)(=O)c1cc(-c2ccc(C(F)(F)F)cn2)cnc1C(=O)/N=c1\sc(C(F)(F)F)nn1C [Compound P50]
≥ 80%: percent effect (mortality or growth inhibition) at 200 ppm [1] | mortality at 200 ppm [2] | percent effect (mortality or growth inhibition) at 200 ppm [3] | percent control (mortality, anti-feedant effect or growth inhibition) at 12.5 ppm [4] | percent control (mortality, anti-feedant effect or growth inhibition) at 200 ppm [5]

CCS(=O)(=O)c1cc(-c2ccc(C#N)nc2)cnc1C(=O)/N=c1\sc(C(F)(F)F)nn1C [Compound P52]
≥ 80%: percent effect (mortality or growth inhibition) at 200 ppm [1] | mortality at 200 ppm [2] | percent effect (mortality or growth inhibition) at 200 ppm [3] | percent control (mortality, anti-feedant effect or growth inhibition) at 12.5 ppm [4] | percent control (mortality, anti-feedant effect or growth inhibition) at 200 ppm [5]

CCS(=O)(=O)c1cc(-c2cccc(C(F)(F)F)n2)cnc1C(=O)/N=c1\sc(C(F)(F)F)nn1C [Compound P44]
≥ 80%: percent effect (mortality or growth inhibition) at 200 ppm [1] | mortality at 200 ppm [2] | percent effect (mortality or growth inhibition) at 200 ppm [3] | percent control (mortality, anti-feedant effect or growth inhibition) at 12.5 ppm [4] | percent control (mortality, anti-feedant effect or growth inhibition) at 200 ppm [5]

CCS(=O)(=O)c1cc(-c2ncc(C(F)(F)F)cn2)cnc1C(=O)/N=c1\sc(C(F)(F)F)nn1C [Compound P43]
≥ 80%: percent effect (mortality or growth inhibition) at 200 ppm [1] | mortality at 200 ppm [2] | percent effect (mortality or growth inhibition) at 200 ppm [3] | percent control (mortality, anti-feedant effect or growth inhibition) at 12.5 ppm [4] | percent control (mortality, anti-feedant effect or growth inhibition) at 200 ppm [5]

CCS(=O)(=O)c1cc(-c2cc(F)ccc2F)cnc1C(=O)/N=c1\sc(C(F)(F)F)nn1C [Compound P33]
≥ 80%: percent effect (mortality or growth inhibition) at 200 ppm [1] | mortality at 200 ppm [2] | percent effect (mortality or growth inhibition) at 200 ppm [3] | percent control (mortality, anti-feedant effect or growth inhibition) at 12.5 ppm [4] | percent control (mortality, anti-feedant effect or growth inhibition) at 200 ppm [5]

CCS(=O)(=O)c1cc(-c2ncc(C(F)(F)F)cc2F)cnc1C(=O)/N=c1\sc(C(F)(F)F)nn1C [Compound P47]
≥ 80%: percent effect (mortality or growth inhibition) at 200 ppm [1] | mortality at 200 ppm [2] | percent effect (mortality or growth inhibition) at 200 ppm [3] | percent control (mortality, anti-feedant effect or growth inhibition) at 12.5 ppm [4] | percent control (mortality, anti-feedant effect or growth inhibition) at 200 ppm [5]

CCS(=O)(=O)c1cc(-c2ccc(Cl)cn2)cnc1C(=O)/N=c1\sc(C(F)(F)F)nn1C [Compound P49]
≥ 80%: percent effect (mortality or growth inhibition) at 200 ppm [1] | mortality at 200 ppm [2] | percent effect (mortality or growth inhibition) at 200 ppm [3] | percent control (mortality, anti-feedant effect or growth inhibition) at 12.5 ppm [4] | percent control (mortality, anti-feedant effect or growth inhibition) at 200 ppm [5]

CCS(=O)(=O)c1cc(-n2ccc(C(F)(F)F)n2)cnc1C(=O)/N=c1\sc(C(F)(F)C(F)(F)F)nn1C [Compound P9, (N)-3-ethylsulfonyl-N-[3-methyl-5-(1,1,2,2,2-pentafluoroethyl)-1,3,4-thiadiazol-2-ylidene]-5-[3-(trifluoromethyl)pyrazol-1-yl]pyridine-2-carboxamide]
≥ 80%: percent effect (mortality or growth inhibition) at 200 ppm [1] | percent effect (mortality or growth inhibition) at 200 ppm [3] | percent control (mortality, anti-feedant effect or growth inhibition) at 12.5 ppm [4] | percent control (mortality, anti-feedant effect or growth inhibition) at 200 ppm [5]

CCS(=O)(=O)c1cc(-c2ncc(Cl)cn2)cnc1C(=O)/N=c1\sc(C(F)(F)F)nn1C [Compound P65]
≥ 80%: percent effect (mortality or growth inhibition) at 200 ppm [1] | mortality at 200 ppm [2] | percent effect (mortality or growth inhibition) at 200 ppm [3] | percent control (mortality, anti-feedant effect or growth inhibition) at 200 ppm [5]

CCS(=O)(=O)c1cc(-c2ccc(C#N)cn2)cnc1C(=O)/N=c1\sc(C(F)(F)F)nn1C [Compound P69]
≥ 80%: percent effect (mortality or growth inhibition) at 200 ppm [1] | mortality at 200 ppm [2] | percent effect (mortality or growth inhibition) at 200 ppm [3] | percent control (mortality, anti-feedant effect or growth inhibition) at 200 ppm [5]

CCS(=O)(=O)c1cc(-c2ccc(OC(F)(F)F)cc2)cnc1C(=O)/N=c1\sc(C(F)(F)F)nn1C [Compound P22]
≥ 80%: percent effect (mortality or growth inhibition) at 200 ppm [1] | percent effect (mortality or growth inhibition) at 200 ppm [3] | percent control (mortality, anti-feedant effect or growth inhibition) at 12.5 ppm [4] | percent control (mortality, anti-feedant effect or growth inhibition) at 200 ppm [5]

CCS(=O)(=O)c1cc(-c2cncc(C(F)(F)F)n2)cnc1C(=O)/N=c1\sc(C(F)(F)F)nn1C [Compound P61]
≥ 80%: percent effect (mortality or growth inhibition) at 200 ppm [1] | mortality at 200 ppm [2] | percent effect (mortality or growth inhibition) at 200 ppm [3] | percent control (mortality, anti-feedant effect or growth inhibition) at 12.5 ppm [4] | percent control (mortality, anti-feedant effect or growth inhibition) at 200 ppm [5]

CCS(=O)(=O)c1cc(-c2cccc(SC)c2)cnc1C(=O)/N=c1\sc(C(F)(F)F)nn1C [Compound P30]
≥ 80%: percent effect (mortality or growth inhibition) at 200 ppm [3] | percent control (mortality, anti-feedant effect or growth inhibition) at 12.5 ppm [4]

CCS(=O)(=O)c1cc(-c2cccc(C#N)n2)cnc1C(=O)/N=c1\sc(C(F)(F)F)nn1C [Compound P48]
≥ 80%: percent effect (mortality or growth inhibition) at 200 ppm [1] | mortality at 200 ppm [2] | percent effect (mortality or growth inhibition) at 200 ppm [3] | percent control (mortality, anti-feedant effect or growth inhibition) at 12.5 ppm [4] | percent control (mortality, anti-feedant effect or growth inhibition) at 200 ppm [5]

CCS(=O)(=O)c1cc(-c2ccc(F)cc2F)cnc1C(=O)/N=c1\sc(C(F)(F)F)nn1C [Compound P25]
≥ 80%: percent effect (mortality or growth inhibition) at 200 ppm [1] | mortality at 200 ppm [2] | percent effect (mortality or growth inhibition) at 200 ppm [3] | percent control (mortality, anti-feedant effect or growth inhibition) at 12.5 ppm [4] | percent control (mortality, anti-feedant effect or growth inhibition) at 200 ppm [5]

CCS(=O)(=O)c1cc(-c2cnc(C(F)(F)F)s2)cnc1C(=O)/N=c1\sc(C(F)(F)F)nn1C [Compound P56]
≥ 80%: percent effect (mortality or growth inhibition) at 200 ppm [1] | mortality at 200 ppm [6] | percent effect (mortality or growth inhibition) at 200 ppm [3] | percent control (mortality, anti-feedant effect or growth inhibition) at 200 ppm [5]

CCS(=O)(=O)c1cc(-c2cc(Cl)ccn2)cnc1C(=O)/N=c1\sc(C(F)(F)F)nn1C [Compound P41]
≥ 80%: percent effect (mortality or growth inhibition) at 200 ppm [1] | mortality at 200 ppm [2] | percent effect (mortality or growth inhibition) at 200 ppm [3] | percent control (mortality, anti-feedant effect or growth inhibition) at 200 ppm [5]

CCS(=O)(=O)c1cc(-c2ccc(C#N)cc2)cnc1C(=O)/N=c1\sc(C(F)(F)F)nn1C [Compound P28]
≥ 80%: percent effect (mortality or growth inhibition) at 200 ppm [1] | mortality at 200 ppm [2] | percent effect (mortality or growth inhibition) at 200 ppm [3] | percent control (mortality, anti-feedant effect or growth inhibition) at 12.5 ppm [4] | percent control (mortality, anti-feedant effect or growth inhibition) at 200 ppm [5]

CCS(=O)(=O)c1cc(-c2ccc(F)cc2)cnc1C(=O)/N=c1\sc(C(F)(F)F)nn1C [Compound P32]
≥ 80%: percent effect (mortality or growth inhibition) at 200 ppm [1] | mortality at 200 ppm [2] | percent effect (mortality or growth inhibition) at 200 ppm [3] | percent control (mortality, anti-feedant effect or growth inhibition) at 12.5 ppm [4] | percent control (mortality, anti-feedant effect or growth inhibition) at 200 ppm [5]

CCS(=O)(=O)c1cc(-c2cccc(C#N)c2)cnc1C(=O)/N=c1\sc(C(F)(F)F)nn1C [Compound P23]
≥ 80%: percent effect (mortality or growth inhibition) at 200 ppm [1] | mortality at 200 ppm [2] | percent effect (mortality or growth inhibition) at 200 ppm [3] | percent control (mortality, anti-feedant effect or growth inhibition) at 12.5 ppm [4] | percent control (mortality, anti-feedant effect or growth inhibition) at 200 ppm [5]
